# What was measured:
# [1] = (§1) Biochemical Assay: A variety of Ras proteins may be inhibited by compounds of the present invention (e.g., K-Ras, N-Ras, H-Ras, and mutants thereof at positions 12, 13 and 61, such as G12C, G12D, G12V, G12S, G13C, G13D, and Q61L, and others described herein). The purpose of this biochemical assay is to measure the ability of test compounds to covalently label nucleotide-loaded K-Ras isoforms. […] The sample is incubated at 25? C. for a time period of up to 24 hours prior to quenching by the addition of 10 uL of 5% Formic Acid. Quenched samples are centrifuged at 15000 rpm for 15 minutes in a benchtop centrifuge before injecting a 10 uL aliquot onto a reverse phase C4 column and eluting into the mass spectrometer with an increasing acetonitrile gradient in the mobile phase. Analysis of raw data may be carried out using Waters MassLynx MS software, with % bound calculated from the deconvoluted protein peaks for labeled and unlabeled K-Ras.
# [2] = as §1; remark: listed apart in the source
# [3] = as §1; remark: listed apart in the source
# [4] = as §1; remark: listed apart in the source
# [5] = as §1; remark: listed apart in the source
# [6] = as §1; remark: listed apart in the source
# [7] = as §1; remark: listed apart in the source
# GTPase KRas = GTPase KRas (Homo sapiens, UniProt P01116); assay: The purpose of this biochemical assay is to measure the ability of test compounds to covalently label nucleotide-loaded K-Ras isoforms. […] Analysis of raw data may be carried out using Waters MassLynx MS software, with % bound calculated from the deconvoluted protein peaks for labeled and unlabeled K-Ras.
IC50 [1],IC50 [2],IC50 [3],IC50 [4],IC50 [5],IC50 [6],IC50 [7],IC50 (GTPase KRas),SMILES
in the range around 5.5 µM,in the range around 0.55 µM,in the range around 5.5 µM,in the range around 5.5 µM,in the range around 5.5 µM,< 0.01 µM,in the range around 5.5 µM,–,CCn1c(-c2cccnc2C(C)OC)c2c3cc(ccc31)N1CCO[C@@H](C[C@H](NC(=O)[C@H](C(C)C)N(C)C(=O)C3(F)CCN(C(=O)C#CC(C)(C)N(C)C)CC3)C(=O)N3CCC[C@H](N3)C(=O)OCC(C)(C)C2)C1 (some centres undefined)
–,–,in the range around 5.5 µM,–,–,–,–,in the range around 0.55 µM,C=CC(=O)N1CC[C@H](C(=O)N(C)[C@H](C(=O)N[C@H]2Cc3cc(O)cc(c3)-c3ccc4c(c3)c(c(-c3cncc(CCN(C)C)c3)n4CC)CC(C)(C)COC(=O)[C@@H]3CCCN(N3)C2=O)C(C)C)C1
> 10 µM,> 10 µM,> 10 µM,> 10 µM,> 10 µM,in the range around 0.055 µM,> 10 µM,–,CCn1c(-c2cccnc2C(C)OC)c2c3cc(ccc31)N1CCC[C@@H](C[C@H](NC(=O)[C@@H](COC3CN(C(=O)C#CC(C)(C)N(C)C)C3)C(C)C)C(=O)N3CCC[C@H](N3)C(=O)OCC(C)(C)C2)C1 (some centres undefined)
–,–,in the range around 5.5 µM,–,–,–,–,in the range around 0.55 µM,C=CC(=O)N1CC[C@H](C(=O)N(C)[C@H](C(=O)N[C@H]2Cc3cc(O)cc(c3)-c3ccc4c(c3)c(c(-c3cnn(C)c3)n4CC)CC(C)(C)COC(=O)[C@@H]3CCCN(N3)C2=O)C(C)C)C1
in the range around 5.5 µM,in the range around 0.55 µM,in the range around 5.5 µM,in the range around 5.5 µM,in the range around 5.5 µM,< 0.01 µM,in the range around 5.5 µM,–,COC(C)c1ncccc1-c1c2c3cc(ccc3n1CC(F)(F)F)-c1cccc(c1)CN(NC(=O)[C@@H](COC1CN(C(=O)C#CC(C)(C)N(C)C)C1)C(C)C)C(=O)N1CCC[C@H](N1)C(=O)OCC(C)(C)C2 (some centres undefined)
–,–,–,–,–,–,–,in the range around 0.055 µM,CCn1c(-c2ccccc2COC)c2c3cc(ccc31)-c1cc(O)cc(c1)C[C@H](NC(=O)[C@H](C(C)C)N(C)C(=O)[C@H]1CCN(C(=O)/C=C/CN(C)C)C1)C(=O)N1CCC[C@H](N1)C(=O)OCC(C)(C)C2
–,–,in the range around 5.5 µM,–,–,–,–,in the range around 0.055 µM,C=CC(=O)N1CC(C(=O)N(C)[C@H](C(=O)N[C@H]2Cc3cc(O)cc(c3)-c3ccc4c(c3)c(c(-c3cccnc3COC)n4CC)CC(C)(C)COC(=O)[C@@H]3CCCN(N3)C2=O)C(C)C)C1
–,–,–,–,–,–,–,in the range around 0.055 µM,C=CC(=O)N1CC[C@H](C(=O)N(C)[C@H](C(=O)N[C@H]2Cc3cc(O)cc(c3)-c3ccc4c(c3)c(c(-c3cccnc3COC)n4CC#N)CC(C)(C)COC(=O)[C@@H]3CCCN(N3)C2=O)C(C)C)C1
> 10 µM,in the range around 5.5 µM,> 10 µM,> 10 µM,> 10 µM,in the range around 0.055 µM,> 10 µM,–,CCn1c(-c2cccnc2C(C)OC)c2c3cc(ccc31)N1CCO[C@@H](C[C@H](NC(=O)[C@@H](COC3CCN(C(=O)C#CC(C)(C)N(C)C)CC3)C(C)C)C(=O)N3CCC[C@H](N3)C(=O)OCC(C)(C)C2)C1 (some centres undefined)
in the range around 5.5 µM,in the range around 0.055 µM,in the range around 5.5 µM,in the range around 5.5 µM,in the range around 0.55 µM,< 0.01 µM,in the range around 5.5 µM,–,C=CC(=O)Nc1cnc(OC[C@H](C(=O)N[C@H]2Cc3cccc(c3)-c3ccc4c(c3)c(c(-c3cccnc3C(C)OC)n4CC)CC(C)(C)COC(=O)[C@@H]3CCCN(N3)C2=O)C(C)C)n1C (some centres undefined)
> 10 µM,> 10 µM,> 10 µM,> 10 µM,> 10 µM,in the range around 0.055 µM,> 10 µM,–,CCn1c(-c2cccnc2C(C)OC)c2c3cc(ccc31)N1CCC[C@@H](C[C@H](NC(=O)[C@H](C(C)C)N(C)C(=O)[C@H]3CCN(C(=O)C#CC(C)(C)N4CCC4)C3)C(=O)N3CCC[C@H](N3)C(=O)OCC(C)(C)C2)C1 (some centres undefined)
–,–,in the range around 5.5 µM,–,–,–,–,in the range around 0.55 µM,C=CC(=O)N1CC[C@H](C(=O)N(C)[C@H](C(=O)N[C@H]2Cc3cc(O)cc(c3)-c3ccc4c(c3)c(c(-c3cccnc3CN(C)C)n4CC)CC(C)(C)COC(=O)[C@@H]3CCCN(N3)C2=O)C(C)C)C1
> 10 µM,in the range around 5.5 µM,in the range around 5.5 µM,> 10 µM,in the range around 5.5 µM,< 0.01 µM,> 10 µM,–,CCn1c(-c2cccnc2C(C)OC)c2c3cc(ccc31)-c1csc(n1)C[C@H](NC(=O)[C@@H](COC1CN(C(=O)C#CC(C)(C)N(C)C)C1)C(C)C)C(=O)N1CCC[C@H](N1)C(=O)OCC(C)(C)C2 (some centres undefined)
–,–,–,–,–,–,–,in the range around 0.055 µM,C=CC(=O)N1CC[C@H](C(=O)N(C)[C@H](C(=O)N[C@H]2Cc3cc(O)cc(c3)-c3ccc4c(c3)c(c(-c3ccc(CN(C)C)cc3COC)n4CC)CC(C)(C)COC(=O)[C@@H]3CCCN(N3)C2=O)C(C)C)C1
–,–,–,–,–,–,–,in the range around 0.055 µM,C=CC(=O)N1CC[C@H](C(=O)N(C)[C@H](C(=O)N[C@H]2Cc3cc(O)cc(c3)-c3ccc4c(c3)c(c(-c3ccccc3CN(C)C)n4CC)CC(C)(C)COC(=O)[C@@H]3CCCN(N3)C2=O)C(C)C)C1
in the range around 5.5 µM,in the range around 5.5 µM,in the range around 5.5 µM,> 10 µM,in the range around 5.5 µM,in the range around 0.55 µM,> 10 µM,–,C=CC(=O)N1CC(OC[C@H](C(=O)N[C@H]2C[C@H]3CN(CCO3)c3ccc4c(c3)c(c(-c3cccnc3C(C)OC)n4CC(F)(F)F)CC(C)(C)COC(=O)[C@@H]3CCCN(N3)C2=O)C(C)C)C1 (some centres undefined)
–,–,in the range around 5.5 µM,–,–,–,–,in the range around 0.55 µM,C=CC(=O)N1CC[C@H](C(=O)N(C)[C@H](C(=O)N[C@H]2Cc3cc(O)cc(c3)-c3ccc4c(c3)c(c(-c3ccc(C5CCN(C)CC5)nc3)n4CC)CC(C)(C)COC(=O)[C@@H]3CCCN(N3)C2=O)C(C)C)C1
–,–,in the range around 5.5 µM,–,–,–,–,in the range around 0.55 µM,C=CC(=O)N1CC[C@H](C(=O)N(C)[C@H](C(=O)N[C@H]2Cc3cc(O)cc(c3)-c3ccc4c(c3)c(c(-c3ccc5c(c3)CCN(C)C5)n4CC)CC(C)(C)COC(=O)[C@@H]3CCCN(N3)C2=O)C(C)C)C1
in the range around 5.5 µM,in the range around 0.55 µM,in the range around 5.5 µM,in the range around 5.5 µM,in the range around 5.5 µM,in the range around 0.055 µM,> 10 µM,–,CCn1c(-c2cccnc2C(C)OC)c2c3cc(ccc31)N1CCO[C@@H](C[C@H](NC(=O)[C@H](C(C)C)N(C)C(=O)C3(F)CCN(C(=O)/C=C/CN(C)C)CC3)C(=O)N3CCC[C@H](N3)C(=O)OCC(C)(C)C2)C1 (some centres undefined)
> 10 µM,in the range around 5.5 µM,> 10 µM,> 10 µM,> 10 µM,in the range around 0.055 µM,> 10 µM,–,CCn1c(-c2cccnc2C(C)OC)c2c3cc(ccc31)-c1cccc(c1)C[C@H](NC(=O)[C@@H](COC1CN(C(=O)C#C[C@H]3COCCN3C)C1)C(C)C)C(=O)N1CCC[C@H](N1)C(=O)OCC(C)(C)C2 (some centres undefined)
in the range around 5.5 µM,in the range around 0.55 µM,in the range around 5.5 µM,in the range around 5.5 µM,in the range around 0.55 µM,in the range around 0.55 µM,in the range around 5.5 µM,–,C=CC(=O)N1CC(OC[C@H](C(=O)N[C@H]2Cc3cc(F)cc(c3)-c3ccc4c(c3)c(c(-c3cccnc3C(C)OC)n4CC(F)(F)F)CC(C)(C)COC(=O)[C@@H]3CCCN(N3)C2=O)C(C)C)C1 (some centres undefined)
in the range around 5.5 µM,in the range around 0.55 µM,in the range around 5.5 µM,in the range around 5.5 µM,in the range around 5.5 µM,in the range around 0.055 µM,in the range around 5.5 µM,–,C=CC(=O)N1CCC(F)(C(=O)N(C)[C@H](C(=O)N[C@H]2C[C@H]3CN(CCO3)c3ccc4c(c3)c(c(-c3cccnc3C(C)OC)n4CC)CC(C)(C)COC(=O)[C@@H]3CCCN(N3)C2=O)C(C)C)CC1 (some centres undefined)
in the range around 0.55 µM,in the range around 0.055 µM,in the range around 0.55 µM,in the range around 0.55 µM,in the range around 0.055 µM,in the range around 0.55 µM,in the range around 0.55 µM,–,C=CC(=O)N1CCOC2(CCN(C(=O)N(C)[C@H](C(=O)N[C@H]3Cc4cc(CF)cc(c4)-c4ccc5c(c4)c(c(-c4cccnc4C(C)OC)n5CC(F)(F)F)CC(C)(C)COC(=O)[C@@H]4CCCN(N4)C3=O)C(C)C)CC2)C1 (some centres undefined)
–,–,–,–,–,–,–,in the range around 0.055 µM,C=CC(=O)N1CC[C@H](C(=O)N(C)[C@H](C(=O)N[C@H]2Cc3cc(O)cc(c3)-c3ccc4c(c3)c(c(C3=C(COC)COCC3)n4CC)CC(C)(C)COC(=O)[C@@H]3CCCN(N3)C2=O)C(C)C)C1

SMILES,IC50 [1],IC50 [2],IC50 [3],IC50 [4],IC50 [5],IC50 [6],IC50 [7],IC50 (GTPase KRas)
C=CC(=O)N1CC[C@H](C(=O)N(C)[C@H](C(=O)N[C@H]2Cc3cc(OC(=O)N(C)CC(=O)O)cc(c3)-c3ccc4c(c3)c(c(-c3ccccc3CCOC)n4CC)CC(C)(C)COC(=O)[C@@H]3CCCN(N3)C2=O)C(C)C)C1,–,–,–,–,–,–,–,in the range around 0.55 µM
